Assay results published in ChEMBL document CHEMBL3046317, “Synthesis and Herbicidal Activity of Sulfonylureas with Fused Heterocyclic Moiety” (1994).

Tests used:
Type in all cases: functional
[1] = system: Echinochloa oryzicola; assay: Herbicidal activity against Echinochloa oryzicola assessed as killing at 1 g/ha by pot test
[2] = system: Rotala indica; assay: Herbicidal activity against Rotala indica assessed as killing at 10 g/ha by pot test
[3] = system: Schoenoplectiella juncoides; assay: Herbicidal activity against Schoenoplectiella juncoides assessed as killing at 10 g/ha by pot test
[4] = system: Rotala indica; assay: Herbicidal activity against Rotala indica assessed as killing at 1 g/ha by pot test
[5] = system: Echinochloa oryzicola; assay: Herbicidal activity against Echinochloa oryzicola assessed as killing at 10 g/ha by pot test
[6] = system: Cyperus difformis; assay: Herbicidal activity against Cyperus difformis assessed as killing at 10 g/ha by pot test
[7] = system: Lindernia procumbens; assay: Herbicidal activity against Lindernia procumbens assessed as killing at 1 g/ha by pot test
[8] = system: Sagittaria pygmaea; assay: Herbicidal activity against Sagittaria pygmaea assessed as killing at 1 g/ha by pot test
[9] = system: Cyperus difformis; assay: Herbicidal activity against Cyperus difformis assessed as killing at 1 g/ha by pot test
[10] = system: Sagittaria pygmaea; assay: Herbicidal activity against Sagittaria pygmaea assessed as killing at 10 g/ha by pot test
[11] = system: Schoenoplectiella juncoides; assay: Herbicidal activity against Schoenoplectiella juncoides assessed as killing at 1 g/ha by pot test
[12] = system: Lindernia procumbens; assay: Herbicidal activity against Lindernia procumbens assessed as killing at 10 g/ha by pot test

COc1cc(OC)nc(NC(=O)NS(=O)(=O)c2c(C)cc3ccccn23)n1
Activity [1]: 1% | Activity [2]: 51% | Activity [3]: 51% | Activity [4]: 1% | Activity [5]: 76% | Activity [6]: 76% | Activity [7]: 1% | Activity [8]: 51% | Activity [9]: 1% | Activity [10]: 76% | Activity [11]: 1% | Activity [12]: 51%

COc1cc(OC)nc(NC(=O)NS(=O)(=O)c2c(C)cn3ccccc23)n1
Activity [1]: 1% | Activity [2]: 1% | Activity [3]: 1% | Activity [4]: 1% | Activity [5]: 1% | Activity [6]: 51% | Activity [7]: 1% | Activity [8]: 51% | Activity [9]: 1% | Activity [10]: 76% | Activity [11]: 1% | Activity [12]: 1%

COc1cc(OC)nc(NC(=O)NS(=O)(=O)c2ncc3ccccn23)n1
Activity [1]: 1% | Activity [2]: 51% | Activity [3]: 51% | Activity [4]: 51% | Activity [5]: 1% | Activity [6]: 1% | Activity [7]: 1% | Activity [8]: 1% | Activity [9]: 1% | Activity [10]: 76% | Activity [11]: 1% | Activity [12]: 51%

COc1cc(OC)nc(NC(=O)NS(=O)(=O)c2nc(C)n3ccccc23)n1
Activity [1]: 1% | Activity [2]: 76% | Activity [3]: 1% | Activity [4]: 51% | Activity [5]: 1% | Activity [6]: 76% | Activity [7]: 1% | Activity [8]: 51% | Activity [9]: 1% | Activity [10]: 51% | Activity [11]: 1% | Activity [12]: 1%

COc1cc(OC)nc(NC(=O)NS(=O)(=O)c2ncn3ccccc23)n1
Activity [1]: 1% | Activity [2]: 76% | Activity [3]: 1% | Activity [4]: 51% | Activity [5]: 51% | Activity [6]: 76% | Activity [7]: 1% | Activity [8]: 1% | Activity [9]: 51% | Activity [10]: 76% | Activity [11]: 1% | Activity [12]: 51%

COc1cc(OC)nc(NC(=O)NS(=O)(=O)c2c(C)nn3ccccc23)n1
Activity [1]: 88% | Activity [2]: 88% | Activity [3]: 100% | Activity [4]: 88% | Activity [5]: 88% | Activity [6]: 88% | Activity [7]: 76% | Activity [8]: 88% | Activity [9]: 88% | Activity [10]: 88% | Activity [11]: 76% | Activity [12]: 88%

COc1cc(OC)nc(NC(=O)NS(=O)(=O)c2c(C)nn3cccnc23)n1
Activity [1]: 88% | Activity [2]: 88% | Activity [3]: 100% | Activity [4]: 76% | Activity [5]: 88% | Activity [6]: 88% | Activity [7]: 88% | Activity [8]: 76% | Activity [9]: 88% | Activity [10]: 88% | Activity [11]: 76% | Activity [12]: 88%

COc1cc(OC)nc(NC(=O)NS(=O)(=O)c2c(C)nc3n(C)ccn23)n1
Activity [1]: 1% | Activity [2]: 88% | Activity [3]: 76% | Activity [4]: 51% | Activity [5]: 88% | Activity [6]: 76% | Activity [7]: 51% | Activity [8]: 1% | Activity [9]: 1% | Activity [10]: 76% | Activity [11]: 1% | Activity [12]: 51%

COc1cc(OC)nc(NC(=O)NS(=O)(=O)c2c(C)nc3scnn23)n1
Activity [1]: 76% | Activity [2]: 88% | Activity [3]: 88% | Activity [4]: 76% | Activity [5]: 88% | Activity [6]: 88% | Activity [7]: 76% | Activity [8]: 1% | Activity [9]: 1% | Activity [10]: 88% | Activity [11]: 51% | Activity [12]: 88%

COc1cc(OC)nc(NC(=O)NS(=O)(=O)c2c(C)nc3cccnn23)n1
Activity [1]: 88% | Activity [2]: 88% | Activity [3]: 100% | Activity [4]: 88% | Activity [5]: 100% | Activity [6]: 100% | Activity [7]: 88% | Activity [8]: 88% | Activity [9]: 88% | Activity [10]: 100% | Activity [11]: 100% | Activity [12]: 88%
